In PubChem BioAssay (NCI):
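Interpolation was linear, between the two tested concentrations surrounding the appropriate level; five concentrations were tested over 48 hours in 96-well plates. TGI: concentration producing complete growth inhibition.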

How the values were obtained:
Assay in all cases: DTP human tumour cell line panel, 48 h
[1] = system: SK-OV-3 ovarian
[2] = system: SK-MEL-2 melanoma
[3] = system: MCF7 breast
[4] = system: HCT-15 colon
[5] = system: COLO 205 colon
[6] = system: SF-539 CNS
[7] = system: MDA-MB-435
[8] = system: MALME-3M melanoma
[9] = system: UACC-257 melanoma
[10] = system: HS 578T breast
[11] = system: CAKI-1 renal
[12] = system: UO-31 renal
[13] = system: NCI/ADR-RES ovarian
[14] = system: OVCAR-3 ovarian
[15] = system: K-562 leukemia
[16] = system: UACC-62 melanoma
[17] = system: DU-145 prostate
[18] = system: OVCAR-4 ovarian
[19] = system: NCI-H23 lung

Measured: TGI

N#CC(C#N)=C1c2ccccc2C(=NN)c2ccccc21
> 91.5 µM: [10]
not listed: [18] | [19]
> 100 µM: all other assays above

CN(C)c1ccc(/C=C/C(=O)CC(=O)/C=C/c2ccc(N(C)C)cc2)cc1
not listed: [9] | [19]
> 100 µM: all other assays above

Fc1ccc(Oc2nc3ccc(C(F)(F)F)cc3nc2-c2ccccc2)cc1
70.8 µM: [11]
> 10 µM: [15]
99.5 µM: [10]
> 100 µM: all other assays above

COc1ccc(/C=C2\CCC(CNc3ccc(S(N)(=O)=O)cc3)C2=O)cc1 (stereo not given)
3.74 µM: [15]
> 81.2 µM: [18]
36 µM: [8]
39.6 µM: [19]
50.6 µM: [16]
41.3 µM: [7]
40.2 µM: [9]
12.2 µM: [12]
> 88.1 µM: [17]
> 91.1 µM: [10]
18.2 µM: [4]
> 59.2 µM: [6]
22.7 µM: [14]
14.7 µM: [3]
34.4 µM: [5]
19.3 µM: [11]
> 100 µM: all other assays above

Cc1ccc2nc3c(=O)[nH]c(=O)nc-3n(C)c2c1C
> 100 µM: all assays above

COC(=O)C1=C(C)C(=O)[C@]23C(CCCC[C@H]12)C(=O)[C@H](C(=O)OC)C3C (stereo not given in full)
not listed: [2]
> 100 µM: all other assays above

CC(=O)OCCCC(NC(=O)OC(C)(C)C)C(=O)NC(CCCOC(C)=O)C(=O)NC(Cc1ccc([N+](=O)[O-])cc1)C(=O)NCC(=O)OCc1ccccc1 (stereo not given)
34.4 µM: [8]
28.9 µM: [6]
28.8 µM: [18]
34.5 µM: [11]
32.2 µM: [3]
30.2 µM: [4]
29 µM: [16]
31.1 µM: [7]
41.8 µM: [13]
32.7 µM: [17]
96 µM: [15]
57.6 µM: [1]
28.6 µM: [9]
30 µM: [12]
27.3 µM: [19]
32.8 µM: [10]
30.1 µM: [14]
31.4 µM: [5]
29.1 µM: [2]

COC(=O)[C@H](Cc1ccccc1)NP(=O)(OCCC#N)OCC1OC(n2cc(C)c(=O)[nH]c2=O)CC1N=[N+]=[N-] (stereo not given in full)
not listed: [6] | [14]
> 100 µM: all other assays above

O=C1N=C(SC(SC2=NC(=O)C3(NN2)c2ccccc2-c2ccccc23)=C(SC2=NC(=O)C3(NN2)c2ccccc2-c2ccccc23)SC2=NC(=O)C3(NN2)c2ccccc2-c2ccccc23)NNC12c1ccccc1-c1ccccc12
not listed: [2] | [14]
> 10 µM: all other assays above

O=C1/C(=c2\s/c(=C\c3ccccc3)c(=O)n2-c2ccccc2)SC(=S)N1c1ccccc1
88.8 µM: [14]
96.8 µM: [13]
52.1 µM: [1]
55.6 µM: [6]
not listed: [12]
> 100 µM: all other assays above

CN1CCc2c3n(c4cc(Br)ccc24)[C@H](O)CCCC31 (stereo not given in full)
3.5 µM: [6]
4.57 µM: [10]
5.61 µM: [9]
3.24 µM: [3] | [5]
3.27 µM: [7]
1.7 µM: [2]
1.88 µM: [15]
4.63 µM: [8]
> 5.77 µM: [4]
> 7.17 µM: [11]
> 7.44 µM: [18]
not listed: [16]
> 10 µM: all other assays above

CC(CC[C@@H](O)C(C)(C)O)C1[C@@H](O)CC2(C)C3CC(O)C4C(C)(C)[C@@H](OC5OC(CO)C(O)C(O)C5O)CC[C@@]45C[C@@]35CC[C@]12C (stereo not given in full)
not listed: [12]
> 10 µM: all other assays above

C=C[C@@]1(C)CC[C@@H]2[C@@]3(C1)O[C@H]3CC1[C@](C)(C(=O)OC)CCC[C@@]12C (stereo not given in full)
35.8 µM: [4]
69.6 µM: [1]
44.3 µM: [9]
41.4 µM: [2]
31.8 µM: [5] | [12]
42.1 µM: [13]
31.9 µM: [14]
44.2 µM: [10]
35 µM: [8]
57.2 µM: [19]
33.2 µM: [3]
not listed: [6]
> 100 µM: all other assays above

OC1c2ccccc2CC12Cc1ccccc1C2 (stereo not given)
not listed: [16]
> 100 µM: all other assays above

O=c1cc(-c2ccccc2)[nH]c2ccc(N3CCOCC3)cc12
> 89.2 µM: [11]
> 93.5 µM: [3]
39.2 µM: [14]
0.615 µM: [6]
> 32.9 µM: [17]
22.4 µM: [1]
not listed: [5] | [19]
> 100 µM: all other assays above

C/C(=C(/C)c1ccc(O)cc1)c1ccc(O)cc1
75.6 µM: [10]
83.3 µM: [16]
not listed: [18]
> 100 µM: all other assays above

COc1cc(C2=C(c3cc(OC)c4ccccc4c3OC)C(=O)c3ccccc3C2=O)c(OC)c2ccccc12
not listed: [15]
> 100 µM: all other assays above

CCOC(=O)c1nnsc1NC(=O)Nc1ccc(Cc2ccc(NC(=O)Nc3snnc3C(=O)OCC)cc2)cc1
54.8 µM: [1]
not listed: [6]
> 100 µM: all other assays above

COc1ccc([C@H]2CC(=O)C[C@H](c3ccc(OC)cc3)C23C(=O)c2ccccc2C3=O)cc1
17.5 µM: [2]
5.95 µM: [7]
7.74 µM: [9]
53.3 µM: [6]
87.8 µM: [10]
8.32 µM: [5]
7.69 µM: [13]
not listed: [14]
> 100 µM: all other assays above

COC(=O)C1CC2CCC1(O[Si](C(C)C)(C(C)C)C(C)C)C(O)C2 (stereo not given)
30.6 µM: [4]
44.9 µM: [19]
32.1 µM: [2]
71.2 µM: [5]
28.4 µM: [3]
30.2 µM: [12]
28.9 µM: [15]
99.6 µM: [10]
39.3 µM: [14]
34.9 µM: [17]
30.9 µM: [7]
not listed: [6] | [9]
> 100 µM: all other assays above

Cc1ccc(C2=Nn3c(nc4sc(C)c(C)c4c3=O)SC2)cc1
not listed: [2]
> 100 µM: all other assays above

CC1OC(OC2C(O)COC(OC3C(C)OC(OC4C(OC(=O)[C@]56CCC(C)(C)C[C@@H]5C5=CCC7[C@@]8(C)C[C@H](O)[C@H](OC9OC(CO)C(O)C(OC%10OC(CO)C(O)C(O)C%10O)C9O)[C@@](C)(CO)[C@@H]8CC[C@@]7(C)[C@]5(C)CC6)OCC(O)C4O)C(O)C3OC3OCC(O)(CO)C3O)C2O)C(O)C(O)C1O (stereo not given in full)
20.9 µM: [9]
22.4 µM: [10]
19.5 µM: [18]
13.2 µM: [8]
16.7 µM: [13]
18 µM: [1]
19.1 µM: [4] | [14]
22.9 µM: [16]
29.4 µM: [3]
16.2 µM: [17]
24.4 µM: [7]
14.3 µM: [19]
10.3 µM: [12]
17.5 µM: [6]
14.9 µM: [5]
12.4 µM: [11]
50 µM: [15]

CC(Cc1ccccc1)Nc1ncnc2c1ncn2C1OC(CO)CC1O (stereo not given)
13.7 µM: [1]
not listed: [6]
> 100 µM: all other assays above

CN1CC[C@]23c4c5ccc(O)c4O[C@H]2C(O)CC[C@@]3(O)[C@H]1C5 (stereo not given in full)
not listed: [15]
> 100 µM: all other assays above
